Literature values, collected in patent publication US20040097404A1, “Supplement to be enternally administered for parenteral nutrition or partial enteral/oral nurtrition of the critically ill, the chronically ill and people with malnutrition” (priority 2000, published 2004).

Assays:
[1] = oral, daily doses of 50 to 400 mg/kg of body weight over 3 weeks

| butyrate concentration in the plasma [1] [mmol] | Structure (SMILES) | toxic side effects [1] | carcinogenic properties at autopsy (parenteral form for 21 years, patient) | toxicity (trivalent chromium) |
| --- | --- | --- | --- | --- |
| ~0.5 | CCCC(=O)OCC(COC(=O)CCC)OC(=O)CCC [glycerol tributyrate] | without detectable toxic side effects |  |  |
|  | [Cr+3] [trivalent chromium] |  | no evidence of carcinogenic properties | nontoxic |
